According to article PMC3043358 (The Prostate, 2010):

Biological target: DNMT1 (Homo sapiens, UniProt P26358)
Type: biochemical

Chain of DNMT1 (P26358 whole entry): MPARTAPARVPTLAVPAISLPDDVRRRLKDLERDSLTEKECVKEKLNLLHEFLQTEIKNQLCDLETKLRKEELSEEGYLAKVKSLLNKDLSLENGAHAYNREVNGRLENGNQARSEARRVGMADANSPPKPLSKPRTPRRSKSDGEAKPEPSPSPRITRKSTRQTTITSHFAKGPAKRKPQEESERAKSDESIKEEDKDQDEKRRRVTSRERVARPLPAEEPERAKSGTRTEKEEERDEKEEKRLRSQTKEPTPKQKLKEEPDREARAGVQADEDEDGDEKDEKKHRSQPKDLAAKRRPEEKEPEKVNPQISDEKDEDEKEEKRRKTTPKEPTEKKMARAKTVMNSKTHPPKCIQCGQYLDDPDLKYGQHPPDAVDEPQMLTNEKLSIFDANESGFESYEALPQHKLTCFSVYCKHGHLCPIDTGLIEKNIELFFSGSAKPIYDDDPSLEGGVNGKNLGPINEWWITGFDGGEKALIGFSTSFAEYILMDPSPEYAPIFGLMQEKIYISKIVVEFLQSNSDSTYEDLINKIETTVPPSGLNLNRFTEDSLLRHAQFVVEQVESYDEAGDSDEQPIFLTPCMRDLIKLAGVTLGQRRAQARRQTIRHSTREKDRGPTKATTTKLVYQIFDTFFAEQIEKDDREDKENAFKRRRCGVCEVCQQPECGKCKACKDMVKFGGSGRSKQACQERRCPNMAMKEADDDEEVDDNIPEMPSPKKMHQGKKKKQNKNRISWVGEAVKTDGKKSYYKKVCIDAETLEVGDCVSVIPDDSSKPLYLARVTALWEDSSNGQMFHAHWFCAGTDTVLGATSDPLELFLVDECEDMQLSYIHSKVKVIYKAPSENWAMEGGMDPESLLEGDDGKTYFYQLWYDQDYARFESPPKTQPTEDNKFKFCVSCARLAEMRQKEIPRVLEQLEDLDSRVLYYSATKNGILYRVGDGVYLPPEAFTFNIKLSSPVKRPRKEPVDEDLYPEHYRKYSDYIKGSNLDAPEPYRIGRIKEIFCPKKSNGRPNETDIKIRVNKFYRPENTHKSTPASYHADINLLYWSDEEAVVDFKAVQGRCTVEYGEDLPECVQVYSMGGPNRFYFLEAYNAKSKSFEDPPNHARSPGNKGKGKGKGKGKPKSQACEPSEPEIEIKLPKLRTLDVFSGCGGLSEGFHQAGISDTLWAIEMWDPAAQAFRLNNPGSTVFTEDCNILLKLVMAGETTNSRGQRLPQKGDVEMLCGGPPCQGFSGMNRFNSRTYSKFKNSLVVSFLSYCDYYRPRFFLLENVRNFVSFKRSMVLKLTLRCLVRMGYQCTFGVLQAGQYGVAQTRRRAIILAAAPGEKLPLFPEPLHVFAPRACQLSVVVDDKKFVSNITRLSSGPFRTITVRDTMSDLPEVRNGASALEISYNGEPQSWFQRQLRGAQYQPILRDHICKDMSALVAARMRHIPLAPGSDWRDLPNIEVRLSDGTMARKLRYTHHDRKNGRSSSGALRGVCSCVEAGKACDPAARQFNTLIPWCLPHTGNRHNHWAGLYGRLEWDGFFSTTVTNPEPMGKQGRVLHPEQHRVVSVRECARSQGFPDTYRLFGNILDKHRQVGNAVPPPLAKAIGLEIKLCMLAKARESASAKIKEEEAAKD

in vitro methyltransferase assay, tritium incorporation from 3H-AdoMet into hemi: 95% reduction of activity at 200
Structure (SMILES): CCN(CC)C(=S)SSC(=S)N(CC)CC [DSF, Disulfiram]
